Measurements published in PMC11767451, “Novel Approaches to Monitor Pharmacokinetics and Metabolism of Gemcitabine-Ibandronate Conjugate in Mice and Dogs” (Molecules, 2025).
Read-outs that look alike come from different tables or passages of the source.

What was measured:
[1] = Proof-of-concept dog PK study, plasma levels of GEM-IB and metabolites by HPLC-MS/MS; type: in vivo, beagle dogs; conditions: for half-life: dog, plasma, 5 mg/kg; for Cmax: analyte = parent or metabolite; for AUC: over the observation period
Procedure: Assay A (GEM-IB and IB): The extraction of calibration standards, quality control samples, and PK study samples was identical. Plasma, quality control stocks, and calibrator stocks were removed from the storage freezer and kept at room temperature until fully thawed. Aliquots of 100 μL of standards/quality control or blank sample were transferred into a 1.5 mL low-binding polypropylene vial with a conical bottom and snap-on lid. An amount of 10 µL of the of the internal standard solution (15 and 10 µg/mL of IB-D3 and ATP-IS, respectively) was added and mixed. For protein precipitation, 50 μL of methanol was added and then samples were vortexed for 10 min. This was followed by centrifugation at 25,000× g for ten minutes at 4 °C (Thermo Scientific MR 23i Centrifuge, Thermo Scientific, Waltham, MA, USA). To remove remaining protein, the supernatant was transferred to 10,000 molecular weight cut off (MWCO) centrifugal filters (800 µL volume, PES 10,000 with 2.0 mL receiver tubes, Analytical Sales and Services, Flanders, NJ, USA) and centrifuged again at 25,000× g for ten minutes at 4 °C. The filtrate was transferred into HPLC vials and placed into the HPLC autosampler maintained at 4 °C.
Assay B (GEMMP, GEM dFdUMP and dFdU): The extraction of calibration standards and quality control samples was identical to that of study samples. An amount of 200 µL of plasma sample was added to a 1.5 mL snap-top Eppendorf tube with 100 µL of protein precipitation solution. The samples were then vortexed for five minutes followed by centrifugation at 25,000× g for ten minutes at 4 °C. Hereafter, supernatants were transferred to 10K Amicon centrifugal filters (Merck-Millipore, Burlington, MA, USA) and centrifuged at the same settings for 60 min. The filtrates were then transferred into HPLC vials for analysis.
Assay A (GEM-IB and IB): Quantification of the analytes was carried out using high-performance liquid chromatography–tandem mass spectrometry (HPLC-MS/MS). Chromatography was performed using an Agilent 1260 Infinity II bio-inert HPLC system (Agilent Technologies, Santa Clara, CA, USA) on a Hypercarb Porous Graphitic Carbon HPLC column (3 µm, 2.1 × 50 mm, Thermo Scientific, Waltham, MA, USA). The HPLC system consisted of an Agilent 1260 Infinity II bio-inert quaternary pump, an Agilent 1260 Infinity II bio-inert column oven, and an Agilent 1260 Infinity II bio-inert autosampler (Agilent Technologies, Santa Clara, CA, USA). An amount of 10 µL of the sample extracts was injected. The column was maintained at 22 °C. HPLC-MS-grade water supplemented with 10 mM hexafluoroisopropanol (HFIP) and 0.05% (v/v) diethyl amine (DEA) at pH 9.4 was used for the aqueous mobile phase (Buffer A) and HPLC-grade acetonitrile was used for the organic mobile phase (Buffer B). The flow rate was set to 400 µL/min throughout the assay. The initial settings were 98% Buffer A and 2% organic Buffer B for the first two minutes. During the following 0.7 min, the organic Buffer B was increased to 30%. At minute 3.5, the gradient reached 98% Buffer B, which was kept for 0.5 min, and at minute 4.2 the column was re-equilibrated to starting conditions for 2.8 min until the next injection. The HPLC system was connected to a Sciex a 5500+ triple quadrupole mass spectrometer (SCIEX, Concord, ON, Canada) via a turbo electrospray ionization source (SCIEX) operated in the negative electrospray ionization (ESI) mode. Data were acquired in negative multiple reaction monitoring (MRM) mode and all compounds were detected as [M–H ]^−. The ion transitions used during the multiple reaction monitoring mode were m/z = 318→236, 321→239, 643→342, and 521→79 for IB, IB-D3, GEM-IB, and adenosine-^13C10,^15N5 5′-triphosphate (^13C10-^15N5-ATP), respectively. The dwell time for analysis was set to 50 ms. The curtain gas was kept at 20 psi and the ion source gas at 55 psi. The ion spray voltage was −4500 volts, and the temperature of the ion source was set to 400 °C. […]

[2] = Stability in dog plasma (accelerated, freeze-thaw, frozen PK samples); type: in vitro ADME; conditions: for %-ACC, frozen PK sample stability: dog plasma PK samples re-extracted after 1.5 years at <−70 °C; for %-ACC (% accuracy vs nominal): 3 freeze-thaw cycles (<−70 °C / bench)
Procedure: For stability testing, QC samples were prepared by spiking plasma with QC stock solutions. These stability samples were stored for the predetermined time periods before extraction (accelerated stability and freeze–thaw stability) or after extraction (autosampler stability) and were run with freshly prepared calibrator standards. For accelerated stability, samples were stored at 4 °C and at room temperature for 4 h and 24 h prior to sample extraction. […] Assay A compounds (GEM-IB and IB) were also tested at 1 h and 2 h exposed to 4 °C and at room temperature to evaluate for which duration GEM-IB is stable.
Freeze–thaw cycle stability was assessed by storing the stability samples overnight in the freezer (<−70 °C) and thawing them the next day on the bench. Once thawed, samples were placed back into the freezer. This was carried out for three freeze–thaw cycles for all compounds.
To assess the stability of study samples, PK samples were re-extracted after storage at <−70 °C for 1.5 years (see Supplementary Table S4).
Method development and validation was conducted following applicable FDA guidelines for bioanalytical assays, as considered fit for purpose. Specificity. Endogenous interferences were excluded by analysis of blank plasma from 6 different individual lots of plasma. The lower limit of quantification (LLOQ) was determined as the lowest concentration consistently achieving an accuracy better than ±20% of the nominal concentration, with imprecision ≤20%. Predefined acceptance criteria. The performance of the assay was considered acceptable if intra- and inter-day imprecision (coefficient of variance, %CV) at each concentration was ≤15%, except at the LLOQ (≤20%). Intra- and inter-day accuracy had to be ±15% of the nominal value, except at the LLOQ (±20%). Calibration curves had to have a correlation coefficient (r) of 0.99 or better. Analytical recovery and imprecision. Intra- and inter-day analytical accuracy and imprecision were tested at least at four concentration levels depending on the LLOQ for each compound. Intra-day imprecision and accuracy were determined with n = 6 per QC level. Inter-day imprecision and accuracy were measured over 3 days, with six replicates for each QC concentration (n = 18). Extraction efficiency and matrix effect. Extraction efficiency for GEM-IB and metabolites was established by comparing the signals of the analytes after the extraction of QCs (n = 6/concentrations), with the signals of the extracted blank matrix spiked with the respective concentrations of analytes after the extraction procedure. The matrix effect was determined by comparing the analyte LC-MS/MS signal after spiking of the analyte into the extracted blank matrix (matrix from 6 different individual lots, analyte concentrations as for the QC samples) with the HPLC-MS/MS signal of the same amount of analyte in neat solution [25]. Carry-over. Carry-over was assessed by injecting blank buffer samples after analysis of the highest calibrators. Carry-over was considered insignificant if there was no signal at the relevant retention times exceeding 20% of the analyte signals at the LLOQ. Stability. QC samples were freshly prepared. One set was extracted and was analyzed immediately to determine baseline signals.

[3] = after GEM-IB 5 mg/kg 30 min i.v. infusion
[4] = beagle, iv, after GEM-IB 5 mg/kg 30 min i.v. infusion, read-out: T1/2 (converted)
[5] = beagle, iv, after GEM-IB 5 mg/kg 30 min i.v. infusion
[6] = beagle, iv, after the end of the 30 min i.v. infusion of GEM-IB 5 mg/kg, read-out: half-life
[7] = dog plasma, 2 hours 4°C (IB and GEM-IB, footnote)
[8] = dog plasma, 2 hours RT (IB and GEM-IB, footnote)

| SMILES | Rate Constant [1, 3] | half-life [1, 4] | Tmax [1, 5] | Cmax [1, 5] | AUC [1, 5] | %-ACC, frozen PK sample stability [2] | %-ACC (% accuracy vs nominal) ([2]; dog plasma) | %-ACC (percent mean accuracy vs nominal) ([2]; dog plasma, 4 hours 4°C) | %-ACC (percent mean accuracy vs nominal) ([2]; dog plasma, 4 hours RT) | %-ACC (percent mean accuracy vs nominal) ([2]; dog plasma, 24 hours 4°C) | %-ACC (percent mean accuracy vs nominal) ([2]; dog plasma, 24 hours RT) | half-life [1, 6] | clearance [1, 5] | Vd ([1]; beagle, iv, after GEM-IB 5 mg/kg 30 min i.v. infusion, read-out: Vdss) | %-ACC (percent mean accuracy vs nominal) [2, 7] | %-ACC (percent mean accuracy vs nominal) [2, 8] | time stable on ice ([2]; dog plasma, on ice) | plasma values after the infusion period [1, 3] | accelerated stability, result in words ([2]; dog plasma, up to 24 h at 4 °C / on ice and room temperature) |
| --- | --- | --- | --- | --- | --- | --- | --- | --- | --- | --- | --- | --- | --- | --- | --- | --- | --- | --- | --- |
| Nc1ccn([C@@H]2O[C@H](CO)[C@@H](O)C2(F)F)c(=O)n1 [GEM, gemcitabine] | 0.5 h⁻¹ | 90.7 min | 30 min | 684 ng/mL | 1620 ng·h/mL | 90.4% ± 23.9 | 103.4% | 102.7% | 101.7% | 94.8% | 95.4% | – | – | – | – | – | – | – | – |
| CCCCCN(C)CCC(O)(P(=O)(O)O)P(=O)(O)OP(=O)(O)OC[C@H]1O[C@@H](n2ccc(N)nc2=O)C(F)(F)[C@@H]1O (stereo partly drawn) [GEM-IB] | 50.6 h⁻¹ | 0.84 min | 30 min | 795 ng/mL | 295 ng·h/mL | – | 84.7% | – | – | 83.6% | 13.7% | < 1 min | 284 mL/min/kg | 1.93 L/kg | 99.3% | 83.5% | up to 24 h | – | – |
| Nc1ccn([C@@H]2O[C@H](COP(=O)(O)O)[C@@H](O)C2(F)F)c(=O)n1 [GEMMP, gemcitabine-5′-phosphate] | – | – | 30 min | 224 ng/mL | 83 ng·h/mL | failed the criteria | 92.4% | 89.5% | 98.2% | 88.1% | 98.2% | – | – | – | – | – | – | below the LLOQ | – |
| CCCCCN(C)CCC(O)(P(=O)(O)O)P(=O)(O)O [IB, ibandronate] | 0.7 h⁻¹ | 55.9 min | 30 min | 4740 ng/mL | 5720 ng·h/mL | – | 106.5% | – | – | 108.8% | 118.5% | 55 min | – | – | 99.3% | 101.0% | – | – | stable |
| O=c1ccn([C@@H]2O[C@H](CO)[C@@H](O)C2(F)F)c(=O)[nH]1 [dFdU, 2′,2′-difluoro-2′-deoxyuridine] | 0.1 h⁻¹ | 591 min | 270 min | 330 ng/mL | 6570 ng·h/mL | failed the criteria | 109.5% | 100.5% | 101.3% | 105.3% | 98.4% | – | – | – | – | – | – | – | – |
| O=c1ccn([C@@H]2O[C@H](COP(=O)(O)O)[C@@H](O)C2(F)F)c(=O)[nH]1 [dFdUMP, 2′,2′-difluoro-2′-deoxyuridine-5′-phosphate] | 7.0 h⁻¹ | 5.94 min | 30 min | 23 ng/mL | 11 ng·h/mL | failed the criteria | 87.7% | 84.2% | 86.7% | 85.2% | 80.5% | – | – | – | – | – | – | – | – |
